In US9605283B2, “Microorganism modified for the production of 1,3-propanediol” (INSTITUT NATIONAL DES SCIENCES APPLIQUÉES, priority 2012, dated 2017):
Changes are numbered by the printed parent chain.

Tests used:
Type in all cases: biochemical
[1] = target: T1, Zymomonas mobilis pyruvate decarboxylase Zm-Pdc variant G413N, SEQ ID No. 194 (Zymomonas mobilis, UniProt P06672, G413N); test: OHB decarboxylase / pyruvate decarboxylase kinetics, Zm-Pdc G413N; details: 37° C., pH 7, coupled to yeast alcohol dehydrogenase/NADH; read-out: Km (natural substrate, pyruvate)
T1 sequence (P06672 1-568 G413N): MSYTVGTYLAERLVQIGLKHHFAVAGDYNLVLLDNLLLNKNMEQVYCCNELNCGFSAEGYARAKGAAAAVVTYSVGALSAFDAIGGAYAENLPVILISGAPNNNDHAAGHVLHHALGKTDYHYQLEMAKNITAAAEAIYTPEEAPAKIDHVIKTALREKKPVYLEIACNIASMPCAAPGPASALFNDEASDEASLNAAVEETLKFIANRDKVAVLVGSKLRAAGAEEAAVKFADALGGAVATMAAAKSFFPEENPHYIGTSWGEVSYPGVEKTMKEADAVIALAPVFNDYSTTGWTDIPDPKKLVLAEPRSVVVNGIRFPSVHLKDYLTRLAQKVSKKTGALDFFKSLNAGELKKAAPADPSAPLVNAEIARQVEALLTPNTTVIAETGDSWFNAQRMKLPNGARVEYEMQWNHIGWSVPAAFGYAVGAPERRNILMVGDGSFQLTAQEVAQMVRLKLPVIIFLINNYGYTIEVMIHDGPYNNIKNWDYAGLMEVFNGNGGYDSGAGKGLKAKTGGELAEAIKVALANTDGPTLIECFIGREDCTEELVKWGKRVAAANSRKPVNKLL
Method: (§1) OHB decarboxylase activity was assayed by coupling the decarboxylase activity to the NADPH-dependent reduction of the released 3-hydroxypropanal by purified aldehyde reductase, YqhD, from E. coli. The decarboxylation of pyruvate was coupled to the NADH-dependent reduction of acetaldehyde catalysed by yeast alcohol dehydrogenase. Branched-chain alpha-ketoacid decarboxylase activity was measured on 4-methyl-2-oxovaleric acid by coupling to the NADH-dependent reduction of 3-methylbutanal catalysed by horse liver alcohol dehydrogenase. […] Reactions were started by adding 20 mM 2-oxo-4-hydroxybutyrate (OHB), 10 mM 4-methyl-2-oxovaleric acid (MOV), or 5 mM pyruvate.
(§2) Site-directed mutagenesis of the L. lactis kdcA and the Z. mobilis Pdc genes was carried out using the oligonucleotide pairs listed in Table 9 and the pET28-Ll-kdcA and pET28-Zm-Pdc plasmids, respectively, as the template.
(§3) Mutant enzymes were expressed, purified and tested for OHB decarboxylase, pyruvate decarboxylase and MOV decarboxylase activity as described in Example 4.

[2] = target: T2, Zymomonas mobilis pyruvate decarboxylase Zm-Pdc variant W392L, SEQ ID No. 192 (Zymomonas mobilis, UniProt P06672, W392L); test: OHB decarboxylase / pyruvate decarboxylase kinetics, Zm-Pdc W392L; details: 37° C., pH 7, coupled to yeast alcohol dehydrogenase/NADH; read-out: Km (natural substrate, pyruvate)
T2 sequence (P06672 1-568 W392L): T1 sequence (P06672 1-568 G413N) with W392L, N413G
Method: as §1, §2, §3

[3] = target: T3, Escherichia coli malate dehydrogenase Ec-Mdh variant R81A I12V, SEQ ID No. 162 (Escherichia coli, UniProt P61889, I12V/R81A); test: DHB dehydrogenase / malate dehydrogenase kinetics, Ec-Mdh R81A I12V; details: read-out: Km (DHB); 37° C., pH 8, 10 mM NAD
T3 sequence (P61889 1-312 I12V/R81A): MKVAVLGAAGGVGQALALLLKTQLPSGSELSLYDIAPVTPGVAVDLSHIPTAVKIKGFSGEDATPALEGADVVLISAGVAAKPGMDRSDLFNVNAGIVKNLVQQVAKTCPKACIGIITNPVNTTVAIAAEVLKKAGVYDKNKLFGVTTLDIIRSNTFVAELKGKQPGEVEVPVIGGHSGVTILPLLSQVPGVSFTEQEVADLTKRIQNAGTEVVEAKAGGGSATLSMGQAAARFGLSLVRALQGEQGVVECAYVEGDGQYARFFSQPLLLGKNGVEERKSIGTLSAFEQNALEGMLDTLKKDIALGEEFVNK
Method: (§4) Activity of the cytosolic DHB dehydrogenases (Ec-Mdh, Bs-Mdh, Ll-LdhA) was assayed by following the DHB-dependent reduction of NAD^+.
(§5) The reaction mixture contained 60 mM Hepes (pH 8), 50 mM potassium chloride, 5 mM MgCl2, 10 mM NAD, (optionally, 5 mM fructose-1,6-bisphosphate (F16bP)) (all products from Sigma), and appropriate amounts of purified enzyme or cell extract. Reactions were started by adding 50 mM (L)-2,4-dihydroxybutyrate (Rhodia).
All enzymatic assays were carried out at 37° C. in 96-well flat bottomed microtiter plates in a final volume of 250 μL.

[4] = target: T4, Escherichia coli malate dehydrogenase Ec-Mdh variant R81A G179D, SEQ ID No. 168 (Escherichia coli, UniProt P61889, G179D/R81A); test: DHB dehydrogenase kinetics, Ec-Mdh R81A G179D; details: 37° C., pH 8, 10 mM NAD
T4 sequence (P61889 1-312 R81A/G179D): T3 sequence (P61889 1-312 I12V/R81A) with V12I, G179D
Method: Site-directed mutagenesis of the E. coli mdh and the B. subtilis mdh genes were carried out using the oligonucleotide pairs listed in Table 3 and the pET28-Ec-mdh and the pET28-Bs-mdh plasmids as the templates. Point mutations to change the amino acid sequence were introduced by PCR (Phusion 1U, HF buffer 20% (v/v), dNTPs 0.2 mM, direct and reverse primers 0.04 μM each, template plasmid 50 ng, water) using the oligonucleotide pairs listed in Table 3. Mutated genes contained a new restriction site listed in Table 3 (introduced using silent mutations) in addition to the functional mutation to facilitate identification of mutated clones. The PCR products were digested by DpnI at 37° C. for 1 h to remove template DNA, and transformed into competent E. coli DH5-alpha cells (NEB). The mutated plasmids were identified by restriction site analysis and verified to carry the desired mutations by DNA sequencing.
Mutant enzymes were expressed, purified and tested for DHB dehydrogenase activity as described in Example 1.
The mutation R81A in Ec-Mdh (by reference to SEQ ID No. 124) was combined with additional changes in the protein sequence.

[5] = DHB dehydrogenase activity of cytosolic enzymes (DHB-dependent reduction of NAD+)
Method: as §4, §5
All enzymatic assays were carried out at 37° C. in 96-well flat bottomed microtiter plates in a final volume of 250 μL. The reactions were followed by the characteristic absorption of NADH at 340 nm (εNADH=6.22 mM^−1 cm^−1) or the absorbtion of DCIP at 655 nm (εDCIP=5.9 mM^−1 cm^−1) in a microplate reader (BioRad 680XR).

[6] = Malate dehydrogenase activity (natural substrate)

## CC(=O)C(=O)O [pyruvate]
[1]
  Km: > 50 mM
[2]
  Km: > 50 mM

## O=C(O)[C@@H](O)CCO [DHB, (L)-2,4-dihydroxybutyrate]
[3]
  Km: > 100 mM
[4]
  Km: > 100 mM

## Bs-Mdh: (L)-malate dehydrogenase of Bacillus subtilis, wild-type, SEQ ID No. 126
[5]; cytosolic wild-type enzymes
  DHB dehydrogenase activity (in words): no measurable DHB dehydrogenase activity
[5]; text of Example 2
  maximum activity on DHB: 0 µmol/mg/min
[5]; when not saturated, activity estimated at 50 mM substrate, Table 2
  Max. specific activity, DHB: 0 µmol/mg/min
[6]; natural substrate (L)-malate, Table 2
  Max. specific activity, Natural substrate: 10.5 µmol/mg/min
[6]; text of Example 2
  activity on malate: 10.9 µmol/mg/min
